Test results: PubChem BioAssay AID1963846 (Molecular Pharmacology Branch, DTP, NCI, 2024)
Values joined by “and” are separate entries in the source; they are usually repeats but may differ in a detail not shown here. Equal entries are not always repeated. One block for each molecule: values may come before it.

Test system: 454973-116-R2-J3-PDC complex spheroid viability
Assay: Anticancer human tumor 454973-116-R2-J3-PDC patient-derived pancreatic carcinoma cell line growth inhibition [POLQ]
Conditions: for viability, T/C: stronger effect = lower value
Method: Multicellular complex tumor spheroid response to Polymerase (POL) inhibitors (novobiocin, ART-558, RP6685) in combination with a variety of drugs and investigational agents in selected tumor cell lines
The POL inhibitors (novobiocin, ART-558, and RP6685) were evaluated both individually and in combination with standard of care and investigational anticancer small molecules within a complex spheroid model of solid tumors. . Complex spheroids include a stromal component modeled by human endothelial cells (HUVEC) and fibroblasts modeled by human mesenchymal stem cells (MSCs). The concentration ranges selected for each drug and investigational agent were based upon clinically achievable concentrations if the clinical Cmax of the agent was known.
Compounds. The drugs and investigational agents: novobiocin (NSC847541), ART-558 (NSC835418), RP-6685 (NSC848927), peposertib (NSC802822), ceralasertib (NSC780249), elimusertib (NSC800525), camonsertib (NSC841442), AZD-1390 (NSC803789), olaparib (NSC753686), talazoparib (NSC767125), rucaparib (NSC756644), sotorasib (NSC818433), MRTX-1133 (NSC836407), SN-38 (NSC673596), topotecan (NSC609699), epotoside (NSC141540), doxorubicin (NSC123127), gemcitabine (NSC613327), 5-fluorouracil (NSC19893), paclitaxel (NSC125973), vemurafenib (NSC761431), MSA-2 (NSC828583), SN-011 (NSC837082), adavosertib (NSC754352), prexasertib (NSC758257), carboplatin (NSC241240) and oxaliplatin (NSC266046), were obtained from the National Cancer Institute (NCI) Developmental Therapeutics Program Chemical Repository (21). The FDA-approved anticancer drug set is available from the Developmental Therapeutics Program at https://dtp.cancer.gov/organization/dscb/obtaining/. […] The stock solutions were prepared in dimethyl sulfoxide (DMSO, Sigma-Aldrich, St. Louis, MO, cat. D2650), except for the platinum compounds which were prepared in saline (Quality Biological, Gaithersburg, MD, cat. 114-055-101), at 800-fold the tested concentration and stored at -70 degrees C prior to their use. All drugs and investigational agents were tested over a range starting from a high concentration at or near the clinical Cmax and decreasing in half-log increments. If the clinical Cmax for an agent had not been determined, the highest concentration tested was 10 microM, except for SN-38, which was tested at a high concentration of 1 microM.
Cell Culture. All cells were maintained in an incubator at 37 degrees C and 5% CO2 with 95% humidity. The PDC lines were cultured according to standard operating procedures established by the NCI PDMR (https://pdmr.cancer.gov). Table 3 of the manuscript, lists the cell lines along with the number of the three cell types plated to form the mct-spheroids and media for tumor cell growth. After thawing, all PDC lines, except 997537-175-T-J1-PDC and 415267-285-R-J2-PDC, were cultured in Matrigel-coated flasks prepared with a working solution of 1X Ham's F-12 nutrient mix, without supplementation (Thermo Fisher Scientific, cat. 11765054), 100 U/mL penicillin-streptomycin (Thermo Fisher Scientific, cat. 15140122), and 2.5% Matrigel (Corning Inc., Corning, NY, cat. 354248) for the first three passages. The two PDC lines 997537-175-T-J1-PDC and 415267-285-R-J2-PDC were cultured on uncoated flasks. The 857933-349-R-J2-PDC line was cultured in 6C/Colon 1B media containing advanced DMEM/F-12 (Thermo Fisher Scientific, cat. 12634028), 10 mM HEPES (Thermo Fisher Scientific, cat. 15630080), 1X GlutaMAX supplement (Thermo Fisher Scientific, cat. 35050061), 0.1 mg/mL primocin (InvivoGen, San Diego, CA, cat. ant-pm-2), 10% defined fetal bovine serum, heat inactivated (HyClone Laboratories Inc., Logan, UT, cat. SH30070.03HI), 50% L-WRN conditioned media (ATCC, cat. CRL-3276), 1.25 mM N-Acetyl-L-cysteine (Sigma-Aldrich, cat. A9165), 10 mM nicotinamide (Sigma-Aldrich, cat. N0636), 1X B-27 supplement (Thermo Fisher Scientific, cat. 17504044), 1X N-2 supplement (Thermo Fisher Scientific, cat. […]
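Further: spheroids exposed to drugs for seven days before measurement.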
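Wherever viability, T/C is given: percent viability relative to DMSO vehicle control wells taken as 100%.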

Compound: O=C(c1cc(Cc2n[nH]c(=O)c3ccccc23)ccc1F)N1CCN(C(=O)C2CC2)CC1 + Cc1cccc(N(C)C(=O)C2C(O)CCN2c2nc(C)cc(C(F)(F)F)c2C#N)c1
IC50 (curve of first compound, second compound 0.0316 µM): > 10 µM
IC50 (curve of first compound, second compound 0.1 µM): > 10 µM
IC50 (curve of first compound, second compound 0.316 µM): > 10 µM
IC50 (curve of first compound, second compound 1 µM): > 10 µM
IC50 (curve of first compound, second compound 3.16 µM): > 10 µM
IC50 (curve of first compound, second compound 10 µM): > 10 µM
viability, T/C (second compound 0.0316 µM, first compound 0.0316 µM): 99.8%
viability, T/C (second compound 0.0316 µM, first compound 0.1 µM): 107%
viability, T/C (second compound 0.0316 µM, first compound 0.316 µM): 95.3%
viability, T/C (second compound 0.0316 µM, first compound 1 µM): 103%
viability, T/C (second compound 0.0316 µM, first compound 3.16 µM): 98%
viability, T/C (second compound 0.0316 µM, first compound 10 µM): 61.4%
viability, T/C (second compound 0.1 µM, first compound 0.0316 µM): 94.7%
viability, T/C (second compound 0.1 µM, first compound 0.1 µM): 103%
viability, T/C (second compound 0.1 µM, first compound 0.316 µM): 103%
viability, T/C (second compound 0.1 µM, first compound 1 µM): 99.3%
viability, T/C (second compound 0.1 µM, first compound 3.16 µM): 91.4%
viability, T/C (second compound 0.1 µM, first compound 10 µM): 64.8%
viability, T/C (second compound 0.316 µM, first compound 0.0316 µM): 99.1%
viability, T/C (second compound 0.316 µM, first compound 0.1 µM): 110%
viability, T/C (second compound 0.316 µM, first compound 0.316 µM): 106%
viability, T/C (second compound 0.316 µM, first compound 1 µM): 106%
viability, T/C (second compound 0.316 µM, first compound 3.16 µM): 94.5%
viability, T/C (second compound 0.316 µM, first compound 10 µM): 61%
viability, T/C (second compound 1 µM, first compound 0.0316 µM): 105%
viability, T/C (second compound 1 µM, first compound 0.1 µM): 96.8%
viability, T/C (second compound 1 µM, first compound 0.316 µM): 109%
viability, T/C (second compound 1 µM, first compound 1 µM): 102%
viability, T/C (second compound 1 µM, first compound 3.16 µM): 91.1%
viability, T/C (second compound 1 µM, first compound 10 µM): 62%
viability, T/C (second compound 3.16 µM, first compound 0.0316 µM): 108%
viability, T/C (second compound 3.16 µM, first compound 0.1 µM): 98.5%
viability, T/C (second compound 3.16 µM, first compound 0.316 µM): 104%
viability, T/C (second compound 3.16 µM, first compound 1 µM): 96.2%
viability, T/C (second compound 3.16 µM, first compound 3.16 µM): 96.3%
viability, T/C (second compound 3.16 µM, first compound 10 µM): 62.6%
viability, T/C (second compound 10 µM, first compound 0.0316 µM): 108%
viability, T/C (second compound 10 µM, first compound 0.1 µM): 105%
viability, T/C (second compound 10 µM, first compound 0.316 µM): 102%
viability, T/C (second compound 10 µM, first compound 1 µM): 98.4%
viability, T/C (second compound 10 µM, first compound 3.16 µM): 92%
viability, T/C (second compound 10 µM, first compound 10 µM): 57.7%

Compound: CCc1cc2c(N3CCc4c(cc(Cn5ccnc5)cc4-c4cn(C)nc4C(F)(F)F)C3=O)ccnc2c(OC)n1
viability, T/C (compound 0.0316 µM): 109% and 100% and 101%
viability, T/C (compound 0.1 µM): 95.6% and 93% and 84.3%
viability, T/C (compound 0.316 µM): 98.7% and 82.7% and 86.3%
viability, T/C (compound 1 µM): 87.5% and 83.7% and 77.2%
viability, T/C (compound 3.16 µM): 89.3% and 71.8% and 72.8%
viability, T/C (compound 10 µM): 68% and 70.2% and 53.9%
IC50 (curve of compound): > 10 µM

Compound: C=CC(=O)N1CCN(c2nc(=O)n(-c3c(C)ccnc3C(C)C)c3nc(-c4c(O)cccc4F)c(F)cc23)C(C)C1 (stereo not drawn)
viability, T/C (compound 0.0316 µM): 109% (2×) and 106%
viability, T/C (compound 0.1 µM): 97% and 98.6% and 100%
viability, T/C (compound 0.316 µM): 105% and 112% and 106%
viability, T/C (compound 1 µM): 104% and 113% and 107%
viability, T/C (compound 3.16 µM): 108% and 104% and 114%
viability, T/C (compound 10 µM): 107% and 113% and 112%
IC50 (curve of compound): > 10 µM

Compound: C=CCn1c(=O)c2cnc(Nc3ccc(N4CCN(C)CC4)cc3)nc2n1-c1cccc(C(C)(C)O)n1
viability, T/C (compound 0.00316 µM): 108% and 106% and 102%
viability, T/C (compound 0.01 µM): 96.7% and 98.2% and 99.6%
viability, T/C (compound 0.0316 µM): 110% and 99.7% and 102%
viability, T/C (compound 0.1 µM): 105% and 104% and 98.3%
viability, T/C (compound 0.316 µM): 86.9% and 73.9% and 63.5%
viability, T/C (compound 1 µM): 17.3% and 10.9% and 9.18%
IC50 (curve of compound): 0.583 µM and 0.49 µM and 0.421 µM

IC50 (compound alone, run of 10/31/2023): > 10 µM
IC50 (compound alone, run of 11/06/2023): > 10 µM
Compound: Cc1cccc(N(C)C(=O)C2C(O)CCN2c2nc(C)cc(C(F)(F)F)c2C#N)c1 (stereo not drawn)
viability, T/C (compound 0.0316 µM): 106% [middle of 13 runs]
viability, T/C (compound 0.1 µM): 108% [middle of 13 runs]
viability, T/C (compound 0.316 µM): 107% [middle of 13 runs]
viability, T/C (compound 1 µM): 100% [middle of 13 runs]
viability, T/C (compound 3.16 µM): 104% [middle of 13 runs]
viability, T/C (compound 10 µM): 107% [middle of 13 runs]

Compound: CC(C)n1c(=O)n(C)c2cnc3cc(F)c(-c4ccc(OCCCN5CCCCC5)nc4)cc3c21
viability, T/C (compound 0.0316 µM): 106% and 110% and 109%
viability, T/C (compound 0.1 µM): 96.6% and 98.5% and 110%
viability, T/C (compound 0.316 µM): 107% and 110% and 113%
viability, T/C (compound 1 µM): 109% and 97.5% and 118%
viability, T/C (compound 3.16 µM): 98% and 97.2% and 102%
viability, T/C (compound 10 µM): 81.2% and 84% and 89.7%
IC50 (curve of compound): > 10 µM
